Laboratory results: DBAASP
≈ marks a conversion by molar mass, not a printed value.

Legend:
Experiment in all cases: ≥ marks a high value that may be exact or a test limit, other limits are often not marked, values filed in µg/mL are converted to µM
Staphylococcus aureus = tested on: Staphylococcus aureus
Escherichia coli W160-37 = tested on: Escherichia coli W160-37
[1] = tested on: Candida parapsilosis ATCC 22019
Staphylococcus aureus 10 = tested on: Staphylococcus aureus 10
Escherichia coli 117 = tested on: Escherichia coli 117
[2] = tested on: Klebsiella pneumoniae ATCC 700603
[3] = tested on: Staphylococcus aureus ATCC 25923
[4] = tested on: Candida albicans ATCC 90028
Staphylococcus aureus 37 = tested on: Staphylococcus aureus 37
Shigella dysenteriae = tested on: Shigella dysenteriae
[5] = tested on: Enterobacter cloacae ATCC 13047
[6] = tested on: Pseudomonas aeruginosa CMCCB 1010
[7] = tested on: Pseudomonas aeruginosa ATCC 27853
Pseudomonas aeruginosa = tested on: Pseudomonas aeruginosa
[8] = tested on: Staphylococcus aureus A170
[9] = tested on: Staphylococcus epidermidis
Listeria monocytogenes = tested on: Listeria monocytogenes
[10] = tested on: Staphylococcus aureus USA 300
Bacillus subtilis 168 = tested on: Bacillus subtilis 168
Escherichia coli = tested on: Escherichia coli
[11] = tested on: Pseudomonas aeruginosa BNCC 125486
Escherichia coli K-12 = tested on: Escherichia coli K-12
[12] = tested on: Pseudomonas aeruginosa PAO1
Klebsiella pneumoniae = tested on: Klebsiella pneumoniae
Acinetobacter baumannii = tested on: Acinetobacter baumannii
[13] = tested on: Escherichia coli BNCC 133264
[14] = tested on: Staphylococcus aureus BNCC 186335
Saccharomyces cerevisiae = tested on: Saccharomyces cerevisiae
[15] = tested on: Shigella dysenteriae ATCC 9752
[16] = tested on: Bacillus subtilis KCTC 1021
[17] = tested on: Klebsiella pneumoniae ATCC 10031
Serratia marcescens = tested on: Serratia marcescens
Pseudomonas putida = tested on: Pseudomonas putida
[18] = tested on: Proteus mirabilis ATCC 25933
[19] = tested on: Micrococcus luteus ATCC 4698
[20] = tested on: Staphylococcus epidermidis ATCC 12228
Candida albicans = tested on: Candida albicans
[21] = tested on: Salmonella enterica subsp. enterica serovar Typhimurium ATCC 14028
[22] = tested on: Pseudomonas aeruginosa ATCC 9027
[23] = tested on: Micrococcus luteus ATCC 9341
[24] = tested on: Staphylococcus aureus ATCC 6538
[25] = tested on: Candida albicans ATCC 36232
[26] = tested on: Escherichia coli ATCC 2592
[27] = tested on: Proteus vulgaris ATCC 6380
[28] = tested on: Enterococcus faecalis 981
[29] = tested on: Enterobacter cloacae CGMCC 1.57
Nocardia asteroides = tested on: Nocardia asteroides
[30] = tested on: Psychrobacter faecalis X29
Candida glabrata 090902 = tested on: Candida glabrata 090902

With CC[C@H](C)[C@H](NC(=O)[C@H](CCCCN)NC(=O)[C@H](CCCCN)NC(=O)[C@H](Cc1c[nH]c2ccccc12)NC(=O)[C@H](CCCCN)NC(=O)[C@H](CO)NC(=O)[C@H](CC(C)C)NC(=O)[C@H](Cc1ccccc1)NC(=O)[C@@H](NC(=O)[C@H](CCCCN)NC(=O)[C@H](CC(C)C)NC(=O)[C@H](CC(C)C)NC(=O)[C@H](CCCCN)NC(=O)[C@@H]1CCCN1)[C@@H](C)O)C(=O)NCC(=O)O [PKLLKTFLSKWKKIG] the MIC (Staphylococcus aureus) was 17 µM (≈ 30.4 µg/mL) and the MIC (Escherichia coli W160-37) was 22 µM (≈ 39.3 µg/mL).
CC[C@H](C)[C@H](N)C(=O)N[C@@H](CC(N)=O)C(=O)N[C@@H](CC(C)C)C(=O)N[C@@H](CCCCN)C(=O)N[C@@H](C)C(=O)N[C@H](C(=O)N[C@@H](C)C(=O)N1CCC[C@H]1C(=O)N[C@@H](CC(C)C)C(=O)N[C@@H](C)C(=O)N[C@@H](CCCCN)C(=O)N[C@@H](CCCCN)C(=O)N[C@@H](CC(C)C)C(=O)N[C@@H](CC(C)C)C(=O)O)[C@@H](C)CC [INLKAIAPLAKKLL] was tested, and the MIC [1] was 13.3 µM (≈ 20 µg/mL), the MIC (Staphylococcus aureus 10) was 26.6 µM (≈ 40 µg/mL) and the MIC (Escherichia coli 117) was ≥ 53.1 µM. The MIC [2] was 13.3 µM (≈ 20 µg/mL), the MIC [3] was 53.1 µM (≈ 80 µg/mL) and the MIC [4] was 13.3 µM (≈ 20 µg/mL). The MIC (Staphylococcus aureus 37) was ≥ 53.1 µM, the MIC (Shigella dysenteriae) was 6.64 µM (≈ 10 µg/mL) and the MIC [5] was 26.6 µM (≈ 40 µg/mL). The MIC [6] was 6.64 µM (≈ 10 µg/mL), the MIC [7] was 6.64 µM (≈ 10 µg/mL) and the MIC (Pseudomonas aeruginosa) was 53.1 µM (≈ 80 µg/mL).
In the case of CC[C@H](C)[C@H](NC(=O)[C@@H]1CCCN1C(=O)[C@H](CC(C)C)NC(=O)[C@@H](N)CC(C)C)C(=O)N[C@H](C(=O)NCC(=O)N[C@@H](CC(N)=O)C(=O)N[C@@H](CC(C)C)C(=O)N[C@@H](CC(C)C)C(=O)N[C@@H](CCCCN)C(=O)N[C@@H](C)C(=O)N[C@@H](CC(C)C)C(=O)N[C@@H](CC(C)C)C(=O)O)C(C)C [LLPIVGNLLKALL], the MIC [8] is reported as 7.26 µM (≈ 10 µg/mL) and the MIC [9] is reported as 14.5 µM (≈ 20 µg/mL).
CC[C@H](C)[C@H](NC(=O)[C@H](CCCCN)NC(=O)[C@@H]1CCCN1C(=O)[C@@H](NC(=O)[C@H](CC(C)C)NC(=O)[C@H](CCCCN)NC(=O)[C@H](CC(C)C)NC(=O)[C@@H](NC(=O)[C@H](CO)NC(=O)CNC(=O)[C@H](Cc1ccccc1)NC(=O)[C@@H](N)Cc1ccccc1)C(C)C)[C@@H](C)CC)C(=O)N[C@@H](CC(C)C)C(N)=O [FFGSVLKLIPKIL] gave an MIC (Listeria monocytogenes) of 1.36 µM (≈ 2 µg/mL), an MIC [10] of 3.12 µM (≈ 4.6 µg/mL) and an MIC (Bacillus subtilis 168) of 6.25 µM (≈ 9.21 µg/mL). The MIC (Escherichia coli) was 21.7 µM (≈ 32 µg/mL), the MIC [11] was ≥ 86.8 µM and the MIC (Staphylococcus aureus) was 1.36 µM (≈ 2 µg/mL). The MIC (Escherichia coli K-12) was 25 µM (≈ 36.8 µg/mL), the MIC [12] was > 100 µM and the MIC (Klebsiella pneumoniae) was > 43.4 µM. For the same compound, the MIC (Acinetobacter baumannii) was ≥ 43.4 µM, the MIC [13] was ≥ 43.4 µM and the MIC [14] was 1.36 µM (≈ 2 µg/mL).
With CC[C@H](C)[C@H](NC(=O)CN)C(=O)N[C@@H](CCSC)C(=O)N[C@@H](CO)C(=O)N[C@H](C(=O)N[C@H](C(=O)N[C@@H](CCCCN)C(=O)N[C@@H](CC(=O)O)C(=O)N[C@H](C(=O)N[C@@H](C)C(=O)N[C@@H](CCCCN)C(=O)N[C@H](C(=O)N[C@@H](C)C(=O)N[C@@H](C)C(=O)N[C@@H](CCCCN)C(=O)N[C@@H](CCC(=O)O)C(=O)N[C@@H](C)C(=O)N[C@@H](C)C(=O)N[C@@H](CCCCN)C(=O)NCC(=O)N[C@@H](C)C(=O)N[C@@H](CC(C)C)C(=O)N[C@@H](CO)C(=O)N[C@H](C(=O)N[C@@H](CC(C)C)C(=O)N[C@@H](CO)C(=O)N[C@H]1CSSC[C@@H](C(=O)O)NC(=O)[C@H]([C@@H](C)O)NC(=O)[C@H](CCCCN)NC(=O)[C@H](C)NC(=O)[C@H](CC(C)C)NC(=O)[C@H](CCCCN)NC1=O)[C@@H](C)O)[C@@H](C)O)C(C)C)C(C)C)[C@@H](C)CC [GIMSIVKDVAKTAAKEAAKGALSTLSCKLAKTC] the MIC (Saccharomyces cerevisiae) was ≥ 60.4 µM, the MIC (Escherichia coli) was 22.7 µM (≈ 75 µg/mL) and the MIC [15] was 7.56 µM (≈ 25 µg/mL). The MIC [16] was 3.02 µM (≈ 9.99 µg/mL), the MIC [17] was 7.56 µM (≈ 25 µg/mL) and the MIC (Serratia marcescens) was ≥ 60.4 µM. The MIC (Pseudomonas putida) was 15.1 µM (≈ 50 µg/mL), the MIC [18] was ≥ 60.4 µM and the MIC [19] was 0.755 µM (≈ 2.5 µg/mL). For the same compound, the MIC [20] was 3.02 µM (≈ 9.99 µg/mL), the MIC (Candida albicans) was > 60.4 µM and the MIC [21] was 45.3 µM (≈ 150 µg/mL). The MIC [22] was 15.1 µM (≈ 50 µg/mL).
With CC[C@H](C)[C@H](NC(=O)[C@H](CCCCN)NC(=O)[C@@H]1CCCN1C(=O)[C@H](CC(C)C)NC(=O)[C@H](Cc1ccccc1)NC(=O)[C@H](CC(N)=O)NC(=O)[C@H](C)N)C(=O)N[C@@H](Cc1ccccc1)C(=O)N[C@@H](CS)C(=O)N[C@@H](CCCCN)C(=O)N[C@H](C(=O)N[C@H](C(=O)N[C@@H](CCCN=C(N)N)C(=O)N[C@@H](CCCCN)C(=O)N[C@@H](CS)C(N)=O)[C@@H](C)O)[C@@H](C)CC [ANFLPKIFCKITRKC] the MIC [23] was 14 µM (≈ 25 µg/mL), the MIC [24] was 56.1 µM (≈ 99.9 µg/mL) and the MIC (Staphylococcus aureus) was > 56.1 µM. For the same compound, the MIC [25] was 28.1 µM (≈ 50 µg/mL), the MIC [26] was 28.1 µM (≈ 50 µg/mL) and the MIC [27] was ≥ 56.1 µM. It also gave an MIC [22] of 28.1 µM (≈ 50 µg/mL).
With CC[C@H](C)[C@H](NC(=O)[C@H](CC(C)C)NC(=O)CNC(=O)[C@H](CO)NC(=O)[C@@H](NC(=O)[C@@H](N)Cc1ccccc1)[C@@H](C)CC)C(=O)NCC(=O)NCC(=O)N[C@@H](CC(C)C)C(=O)N[C@@H](CCSC)C(=O)N[C@@H](CCCCN)C(=O)N[C@@H](C)C(=O)N[C@@H](CC(C)C)C(N)=O [FISGLIGGLMKAL] the MIC [28] was ≥ 50 µM, the MIC [29] was ≥ 400 µM and the MIC [3] was 25 µM (≈ 33 µg/mL). The MIC (Nocardia asteroides) was 25 µM (≈ 33 µg/mL), the MIC [30] was ≥ 200 µM and the MIC (Candida glabrata 090902) was ≥ 100 µM.
